Read-outs that look alike come from different tables or passages of the source.
Key:
[1] = tested on: tubulin polymerization in HCT-116 cells; assay: Cellular tubulin polymerization assay (HCT-116 cells); assay type: cell-based
Protocol: HCT-116 cells (catalog #CCL-247) are obtained from the American Type Culture Collect (ATCC, Manassas, VA). Briefly, cells are grown in McCoy's 5A supplemented with 10% characterized fetal bovine serum (Invitrogen, Carlsbad, CA) and 1% Penicillin/Streptomycin/L-Glutamine at 37° C., 5% CO2, and 95% humidity. Cells are expanded until reaching 70-95% confluency at which point they are sub-cultured or harvested for assay use. 450000 cells are added per well in 1500 μL complete growth medium in a tissue culture treated, 12-well plate. Plates are incubated for 18 to 24 h at 37° C., 5% CO2, and 95% humidity. At the end of the incubation, 2000 μL of base culture media is added to each well, followed by a serial dilution of compound. Plates are incubated for an additional 1 h at 37° C., 5% CO2, and 95% humidity. Lysates are generated by the addition of 100 μL Lysis and Microtubule Stabilization Buffer 1 (LMSO1, Cytoskeleton Inc, Denver, CO) supplemented with GTP (BST06, Cytoskeleton Inc), ATP (BSA04, Cytoskeleton Inc), and Protease Inhibitor Cocktail Stock (PIC02, Cytoskeleton Inc). Cells are scraped off wells using a rubber cell scraper and collected in a clean 96-well plate. Lysates are centrifuged at 1000× g, 37° C. for 10 min and supernatant fraction is placed into an additional 96-well plate. The remaining pellet fraction is reconstituted in 100 μL LMS01 buffer and sonicated for 10 min. Pellet and Supernatant fractions are probed for α-tubulin via western blot analysis on the Jess System or equivalent (Bio-techne, Minneapolis, MN). Data is analyzed using Prism software (Graphpad, San Diego, CA) to calculate IC50 values.

Porcine Brain Tubulin = Porcine Brain Tubulin (Sus scrofa, UniProt P02550+P02554); assay: Biochemical tubulin polymerization assay; settings: maximum velocity of polymerization, FIG. 1; read-out: IC50 of inhibition of tubulin polymerization, biochemical tubulin assay
HCT-116 cells = assay: HCT-116 cell proliferation assay; assay type: cell-based; settings: Homo sapiens
MiaPaca-2 cells = assay: MiaPaca-2 cell proliferation assay; assay type: cell-based; settings: Homo sapiens, MIA PaCa-2
Pa16c cells = assay: Pa16c cell proliferation assay; assay type: cell-based; settings: 67 to 72 h incubation, resazurin; read-out: Pa16c (inhibition of cell proliferation, IC50)
HPAF-II cells = assay: HPAF-II cell proliferation assay; assay type: cell-based; settings: Homo sapiens
[2] = molecular target: T1, C-Raf kinase (SEQ ID NO: 2) (Homo sapiens, UniProt P04049, Y340D/Y341D); assay: Biochemical assay for C-Raf (coupled pyruvate kinase/lactate dehydrogenase)
T1 construct: C-Raf residues 306-end; Y340D, Y341D with N-; GST (N); purchased Sigma

[3] = molecular target: T2, B-Raf kinase (SEQ ID NO: 1) (Homo sapiens, UniProt P15056); assay: Biochemical assay for B-Raf (coupled pyruvate kinase/lactate dehydrogenase)
T2 construct: GST (N); purchased Sigma

[4] = HCT-116, 67 to 72 h incubation, resazurin, read-out: HCT-116 (inhibition of cell proliferation, IC50)
[5] = Table 3, mutant KRAS colorectal cancer cell line, anti-proliferative, read-out: HCT-116
[6] = 67-72 h incubation, resazurin, read-out: MiaPaca-2 (inhibition of cell proliferation, IC50)
[7] = Table 3, mutant KRAS pancreatic cancer cell line, anti-proliferative, read-out: MiaPaca-2
[8] = Table 3, HCT-116 cells, read-out: Tubulin Cellular
[9] = HPAF-II, 115 to 120 h incubation, resazurin, read-out: HPAF-II (inhibition of cell proliferation, IC50)
[10] = Table 3, mutant KRAS pancreatic cancer cell line, anti-proliferative, read-out: HPAF-II
[11] = 1 mM ATP, read-out: CRAF (inhibition of biochemical activity, IC50)
[12] = 1 mM ATP, read-out: BRAF (inhibition of biochemical activity, IC50)

T2 sequence (P15056 416-766): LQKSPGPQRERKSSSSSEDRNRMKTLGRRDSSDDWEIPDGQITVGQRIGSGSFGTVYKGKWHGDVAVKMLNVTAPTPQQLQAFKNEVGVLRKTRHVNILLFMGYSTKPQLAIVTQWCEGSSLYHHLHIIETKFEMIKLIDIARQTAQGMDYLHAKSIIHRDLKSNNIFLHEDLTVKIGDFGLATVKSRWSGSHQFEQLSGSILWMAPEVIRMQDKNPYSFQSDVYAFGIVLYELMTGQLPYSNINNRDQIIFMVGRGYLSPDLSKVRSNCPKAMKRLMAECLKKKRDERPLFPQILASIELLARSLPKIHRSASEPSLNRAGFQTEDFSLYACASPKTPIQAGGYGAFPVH
T1 sequence (P04049 307-648 Y340D/Y341D): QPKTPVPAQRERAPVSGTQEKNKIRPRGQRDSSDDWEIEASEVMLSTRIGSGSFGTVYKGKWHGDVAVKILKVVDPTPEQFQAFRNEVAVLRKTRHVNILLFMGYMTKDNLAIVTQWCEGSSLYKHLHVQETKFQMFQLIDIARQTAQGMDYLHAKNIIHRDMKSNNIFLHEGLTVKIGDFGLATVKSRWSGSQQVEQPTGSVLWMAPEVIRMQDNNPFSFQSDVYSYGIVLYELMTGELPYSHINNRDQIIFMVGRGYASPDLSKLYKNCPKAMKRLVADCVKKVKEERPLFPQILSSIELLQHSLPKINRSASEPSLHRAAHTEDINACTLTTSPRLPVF
Porcine Brain Tubulin, sequence (P02554 whole entry): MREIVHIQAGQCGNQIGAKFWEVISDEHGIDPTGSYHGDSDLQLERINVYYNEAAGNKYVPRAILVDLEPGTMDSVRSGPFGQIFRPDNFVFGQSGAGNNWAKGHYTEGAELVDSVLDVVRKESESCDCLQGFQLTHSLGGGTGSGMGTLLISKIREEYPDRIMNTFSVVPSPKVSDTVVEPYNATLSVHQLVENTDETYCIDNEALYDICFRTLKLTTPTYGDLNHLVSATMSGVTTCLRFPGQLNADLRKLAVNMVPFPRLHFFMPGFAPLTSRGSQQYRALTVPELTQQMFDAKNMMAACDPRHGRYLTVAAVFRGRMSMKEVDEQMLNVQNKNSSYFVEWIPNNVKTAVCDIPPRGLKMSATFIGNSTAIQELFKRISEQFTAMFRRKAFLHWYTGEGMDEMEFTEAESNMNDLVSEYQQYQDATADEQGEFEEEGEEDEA
Porcine Brain Tubulin, sequence (P02550 whole entry): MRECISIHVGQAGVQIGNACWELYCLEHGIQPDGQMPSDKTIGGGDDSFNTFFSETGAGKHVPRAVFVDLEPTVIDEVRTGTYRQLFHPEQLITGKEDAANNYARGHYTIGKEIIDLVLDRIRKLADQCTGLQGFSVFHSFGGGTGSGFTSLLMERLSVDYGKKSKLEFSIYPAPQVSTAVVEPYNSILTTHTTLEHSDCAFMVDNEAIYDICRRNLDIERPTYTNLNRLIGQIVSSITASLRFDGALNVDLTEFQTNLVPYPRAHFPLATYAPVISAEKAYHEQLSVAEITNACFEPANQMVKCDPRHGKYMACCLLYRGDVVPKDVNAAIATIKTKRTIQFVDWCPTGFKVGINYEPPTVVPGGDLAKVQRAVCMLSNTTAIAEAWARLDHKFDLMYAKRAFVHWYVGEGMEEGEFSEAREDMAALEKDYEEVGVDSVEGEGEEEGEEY

| IC50 (HCT-116 cells; [4]) [nM] | IC50 (HCT-116 cells; [5]) [nM] | IC50 (MiaPaca-2 cells; [6]) [nM] | IC50 (MiaPaca-2 cells; [7]) [nM] | IC50 [1, 8] [nM] | IC50 [2, 11] [nM] | IC50 ([2]; Table 3, read-out: CRAF) [nM] | IC50 [3, 12] [nM] | IC50 ([3]; Table 3, read-out: BRAF) [nM] | Structure (SMILES) | IC50 ([1]; ratio of pellet to supernatant vs DMSO control, HCT-116, FIG. 2, read-out: IC50 of inhibition of tubulin polymerization, cellular tubulin assay) [nM] | IC50 (Porcine Brain Tubulin) [nM] | IC50 (Pa16c cells) [nM] | IC50 (HPAF-II cells; [9]) [nM] | IC50 (HPAF-II cells; [10]) [nM] |
| --- | --- | --- | --- | --- | --- | --- | --- | --- | --- | --- | --- | --- | --- | --- |
|  |  |  |  |  |  |  |  |  | CC(C)(C)c1[nH]cnc1/C=c1\[nH]c(=O)/c(=C/c2ccccc2)[nH]c1=O [plinabulin, reference compound] | 5 | 2700 |  |  |  |
| 100 to 500 | 100 to 500 | 100 to 500 | 100 to 500 | 100 to 500 | 1000 to 10000 | 1000 to 10000 | 1000 to 10000 | 1000 to 10000 | Cc1ccc(NC(=O)c2cc(C(F)(F)F)cnn2)cc1-c1nc(N[C@H](C)CO)cc(N2CCOCC2)n1 [Example 49] |  |  | 100 to 500 | 100 to 500 | 100 to 500 |
| 100 to 500 | 100 to 500 | < 100 | < 100 | 100 to 500 | < 100 | < 100 | 100 to 500 | 100 to 500 | Cc1ccc(NC(=O)c2cc(C(F)(F)F)cnn2)cc1-c1cncc(N2CCOCC2)c1 [Example 27] |  |  | 100 to 500 | 100 to 500 | 100 to 500 |

Source: patent publication US20250206729A1, “DUAL RAF AND TUBULIN INHIBITORS AND METHODS OF USE THEREOF” (Deciphera Pharmaceuticals, LLC, priority 2023, published 2025)
